Measured values from PMC12090182, “Repurposing of the RIPK1-Selective Benzo[1,4]oxazepin-4-one Scaffold for the Development of a Type III LIMK1/2 Inhibitor” (ACS Chemical Biology, 2025).
Read-outs that look alike come from different tables or passages of the source.

Assays:
FLT3(ITD,F691L) = type: binding; conditions: 1000 nM
TOPKA = TOPKA (Homo sapiens, UniProt Q96KB5); experiment: DSF selectivity screening; type: binding; conditions: 10 μM compound
How it was run: (§1)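 Protein melting monitored by SYPRO Orange fluorescence at 465 nm excitation, 590 nm emission, using 2 μM kinase domain with compound at 10 μM. Buffer: 20 mM HEPES pH 7.5, 500 mM NaCl; heating step 3 °C/min. Tm defined as transition inflection point via Boltzmann equation.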

MAP2K7 = MAP2K7 (Homo sapiens, UniProt O14733); experiment: DSF selectivity screening; type: binding; conditions: 10 μM compound
How it was run: as §1

RIOK1A = RIOK1A (Homo sapiens, UniProt Q9BRS2); experiment: DSF selectivity screening; type: binding; conditions: 10 μM compound
RIOK1A, sequence (Q9BRS2 143-494): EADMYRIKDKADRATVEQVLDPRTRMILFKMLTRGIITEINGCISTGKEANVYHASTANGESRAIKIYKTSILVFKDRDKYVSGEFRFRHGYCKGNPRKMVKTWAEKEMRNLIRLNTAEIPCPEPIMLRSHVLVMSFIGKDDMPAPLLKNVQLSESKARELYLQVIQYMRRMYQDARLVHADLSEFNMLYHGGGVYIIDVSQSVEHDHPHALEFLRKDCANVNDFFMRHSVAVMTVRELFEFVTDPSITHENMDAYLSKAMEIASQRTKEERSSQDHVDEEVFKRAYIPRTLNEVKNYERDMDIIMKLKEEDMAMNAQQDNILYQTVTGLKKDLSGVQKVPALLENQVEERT
How it was run: as §1

DCAMKL1A = DCAMKL1A (Homo sapiens, UniProt O15075); experiment: DSF selectivity screening; type: binding; conditions: 10 μM compound
How it was run: as §1

STK17BA = STK17BA (Homo sapiens, UniProt O94768); experiment: DSF selectivity screening; type: binding; conditions: 10 μM compound
How it was run: as §1

NEK1A = NEK1A (Homo sapiens, UniProt Q96PY6); experiment: DSF selectivity screening; type: binding; conditions: 10 μM compound
NEK1A, sequence (Q96PY6 1-328): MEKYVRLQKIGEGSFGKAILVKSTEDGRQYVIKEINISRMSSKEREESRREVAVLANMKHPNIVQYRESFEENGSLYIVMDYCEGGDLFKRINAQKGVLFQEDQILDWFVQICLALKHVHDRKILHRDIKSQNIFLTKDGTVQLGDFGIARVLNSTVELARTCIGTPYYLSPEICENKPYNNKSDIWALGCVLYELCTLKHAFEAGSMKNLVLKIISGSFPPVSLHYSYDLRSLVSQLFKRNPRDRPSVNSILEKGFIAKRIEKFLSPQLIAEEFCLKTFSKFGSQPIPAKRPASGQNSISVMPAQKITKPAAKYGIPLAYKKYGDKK
How it was run: as §1

PAK4A = PAK4A (Homo sapiens, UniProt O96013); experiment: DSF selectivity screening; type: binding; conditions: 10 μM compound
How it was run: as §1

GSG2A = GSG2A (Homo sapiens, UniProt Q8TF76); experiment: DSF selectivity screening; type: binding; conditions: 10 μM compound
How it was run: as §1

CSNK2A1A = CSNK2A1A (Homo sapiens, UniProt P68400); experiment: DSF selectivity screening; type: binding; conditions: 10 μM compound
How it was run: as §1

FGFR1B = FGFR1B (Homo sapiens, UniProt P11362); experiment: DSF selectivity screening; type: binding; conditions: 10 μM compound
How it was run: as §1

KIT(D816H) = KIT(D816H) (Homo sapiens, UniProt P10721, D816H); experiment: biochemical; type: binding; conditions: 1000 nM, read-out: Percent Control
[1] = biological target: ABL1(M351T)-phosphorylated (Homo sapiens, UniProt P00519, M351T); experiment: biochemical; type: binding; conditions: read-out: Percent Control
PIK3CA(M1043I) = PIK3CA(M1043I) (Homo sapiens, UniProt P42336, M1043I); experiment: biochemical; type: binding; conditions: read-out: Percent Control
PIK3CA(Q546K) = PIK3CA(Q546K) (Homo sapiens, UniProt P42336, Q546K); experiment: biochemical; type: binding; conditions: read-out: Percent Control
EGFR(G719C) = EGFR(G719C) (Homo sapiens, UniProt P00533, G719C); experiment: biochemical; type: binding; conditions: 1000 nM, read-out: Percent Control
[2] = biological target: EGFR(L747-E749del, A750P) (Homo sapiens, UniProt P00533, A750P/DEL747-749); experiment: biochemical; type: binding; conditions: compound concentration 100 nM; Entrez EGFR; read-out: Percent Control
BRPF1B = BRPF1B (Homo sapiens, UniProt P55201); experiment: DSF selectivity screening; type: binding; conditions: 10 μM compound
[3] = biological target: ABL1(Q252H)-phosphorylated (Homo sapiens, UniProt P00519, Q252H); experiment: biochemical; type: binding; conditions: read-out: Percent Control
LRRK2 = LRRK2 (Homo sapiens, UniProt Q5S007); experiment: scanMAX KINOMEscan (Eurofins); type: binding
LRRK2, sequence (Q5S007 whole entry): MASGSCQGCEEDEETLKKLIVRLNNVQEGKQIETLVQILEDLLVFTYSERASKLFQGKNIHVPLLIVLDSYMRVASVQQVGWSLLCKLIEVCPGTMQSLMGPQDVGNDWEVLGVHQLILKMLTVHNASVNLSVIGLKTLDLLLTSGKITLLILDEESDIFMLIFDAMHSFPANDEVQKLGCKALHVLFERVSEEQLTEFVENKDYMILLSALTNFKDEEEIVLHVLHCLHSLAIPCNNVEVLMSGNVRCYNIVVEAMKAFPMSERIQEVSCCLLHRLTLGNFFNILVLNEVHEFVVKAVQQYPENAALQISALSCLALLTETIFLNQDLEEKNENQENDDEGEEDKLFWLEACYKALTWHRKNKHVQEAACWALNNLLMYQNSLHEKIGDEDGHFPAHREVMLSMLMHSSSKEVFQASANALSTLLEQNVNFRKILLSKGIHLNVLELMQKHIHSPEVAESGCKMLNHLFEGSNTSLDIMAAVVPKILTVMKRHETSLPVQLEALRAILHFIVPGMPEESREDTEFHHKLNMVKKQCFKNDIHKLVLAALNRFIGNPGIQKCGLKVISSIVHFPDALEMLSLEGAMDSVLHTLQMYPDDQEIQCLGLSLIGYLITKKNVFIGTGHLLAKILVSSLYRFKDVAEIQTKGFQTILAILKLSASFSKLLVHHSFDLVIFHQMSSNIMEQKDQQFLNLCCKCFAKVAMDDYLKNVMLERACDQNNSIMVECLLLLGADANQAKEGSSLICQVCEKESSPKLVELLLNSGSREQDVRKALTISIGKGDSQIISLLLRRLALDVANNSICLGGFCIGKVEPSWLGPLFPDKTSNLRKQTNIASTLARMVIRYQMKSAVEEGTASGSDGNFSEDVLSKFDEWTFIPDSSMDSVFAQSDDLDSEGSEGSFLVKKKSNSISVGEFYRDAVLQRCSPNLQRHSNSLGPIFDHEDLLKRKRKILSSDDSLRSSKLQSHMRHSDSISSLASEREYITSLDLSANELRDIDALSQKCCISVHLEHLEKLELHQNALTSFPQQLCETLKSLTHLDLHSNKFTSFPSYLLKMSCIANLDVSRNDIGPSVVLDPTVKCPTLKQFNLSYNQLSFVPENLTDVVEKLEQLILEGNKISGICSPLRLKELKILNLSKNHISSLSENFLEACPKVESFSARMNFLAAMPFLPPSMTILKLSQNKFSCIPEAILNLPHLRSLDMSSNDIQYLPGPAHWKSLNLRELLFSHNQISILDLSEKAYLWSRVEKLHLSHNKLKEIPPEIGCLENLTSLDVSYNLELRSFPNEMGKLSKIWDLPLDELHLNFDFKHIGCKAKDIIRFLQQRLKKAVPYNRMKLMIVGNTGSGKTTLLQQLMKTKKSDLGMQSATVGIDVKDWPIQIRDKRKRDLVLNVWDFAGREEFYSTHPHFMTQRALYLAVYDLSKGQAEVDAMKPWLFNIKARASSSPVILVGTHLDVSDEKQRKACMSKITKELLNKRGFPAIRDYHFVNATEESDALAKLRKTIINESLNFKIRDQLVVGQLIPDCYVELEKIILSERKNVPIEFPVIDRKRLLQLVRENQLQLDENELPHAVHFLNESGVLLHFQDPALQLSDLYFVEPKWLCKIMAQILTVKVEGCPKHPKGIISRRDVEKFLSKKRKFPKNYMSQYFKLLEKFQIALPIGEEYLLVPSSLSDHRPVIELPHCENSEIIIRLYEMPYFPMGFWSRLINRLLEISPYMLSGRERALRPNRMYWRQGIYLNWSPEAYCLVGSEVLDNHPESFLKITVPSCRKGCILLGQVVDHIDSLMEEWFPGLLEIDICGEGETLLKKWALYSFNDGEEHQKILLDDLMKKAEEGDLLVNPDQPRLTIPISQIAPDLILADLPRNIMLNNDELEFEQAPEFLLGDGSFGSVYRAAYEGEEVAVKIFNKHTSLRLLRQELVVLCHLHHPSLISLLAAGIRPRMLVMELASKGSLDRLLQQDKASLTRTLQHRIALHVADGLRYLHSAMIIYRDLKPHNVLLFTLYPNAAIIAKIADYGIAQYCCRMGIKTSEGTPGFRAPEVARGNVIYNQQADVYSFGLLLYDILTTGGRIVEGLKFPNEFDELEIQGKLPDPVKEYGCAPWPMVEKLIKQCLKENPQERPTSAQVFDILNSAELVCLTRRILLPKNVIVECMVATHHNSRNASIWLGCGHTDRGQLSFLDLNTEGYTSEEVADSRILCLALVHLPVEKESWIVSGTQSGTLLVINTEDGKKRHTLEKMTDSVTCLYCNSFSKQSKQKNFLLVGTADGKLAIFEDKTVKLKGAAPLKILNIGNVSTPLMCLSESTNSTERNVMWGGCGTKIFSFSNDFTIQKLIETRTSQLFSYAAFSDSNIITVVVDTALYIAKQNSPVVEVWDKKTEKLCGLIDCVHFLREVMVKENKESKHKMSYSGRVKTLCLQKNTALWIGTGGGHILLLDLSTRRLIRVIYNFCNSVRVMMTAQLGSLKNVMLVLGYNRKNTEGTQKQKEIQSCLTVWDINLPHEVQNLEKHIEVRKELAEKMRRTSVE

KIT(V559D) = KIT(V559D) (Homo sapiens, UniProt P10721, V559D); experiment: biochemical; type: binding; conditions: 1000 nM, read-out: Percent Control
KIT(D816V) = KIT(D816V) (Homo sapiens, UniProt P10721, D816V); experiment: biochemical; type: binding; conditions: compound concentration 100 nM; Entrez KIT; read-out: Percent Control
EGFR(S752-I759del) = EGFR(S752-I759del) (Homo sapiens, UniProt P00533, DEL752-759); experiment: biochemical; type: binding; conditions: read-out: Percent Control
PIK3CA(H1047L) = PIK3CA(H1047L) (Homo sapiens, UniProt P42336, H1047L); experiment: biochemical; type: binding; conditions: compound concentration 100 nM; Entrez PIK3CA; read-out: Percent Control
EGFR(T790M) = EGFR(T790M) (Homo sapiens, UniProt P00533, T790M); experiment: biochemical; type: binding; conditions: compound concentration 100 nM; Entrez EGFR; read-out: Percent Control
EGFR(T790M), sequence (P00533 25-1210 T790M): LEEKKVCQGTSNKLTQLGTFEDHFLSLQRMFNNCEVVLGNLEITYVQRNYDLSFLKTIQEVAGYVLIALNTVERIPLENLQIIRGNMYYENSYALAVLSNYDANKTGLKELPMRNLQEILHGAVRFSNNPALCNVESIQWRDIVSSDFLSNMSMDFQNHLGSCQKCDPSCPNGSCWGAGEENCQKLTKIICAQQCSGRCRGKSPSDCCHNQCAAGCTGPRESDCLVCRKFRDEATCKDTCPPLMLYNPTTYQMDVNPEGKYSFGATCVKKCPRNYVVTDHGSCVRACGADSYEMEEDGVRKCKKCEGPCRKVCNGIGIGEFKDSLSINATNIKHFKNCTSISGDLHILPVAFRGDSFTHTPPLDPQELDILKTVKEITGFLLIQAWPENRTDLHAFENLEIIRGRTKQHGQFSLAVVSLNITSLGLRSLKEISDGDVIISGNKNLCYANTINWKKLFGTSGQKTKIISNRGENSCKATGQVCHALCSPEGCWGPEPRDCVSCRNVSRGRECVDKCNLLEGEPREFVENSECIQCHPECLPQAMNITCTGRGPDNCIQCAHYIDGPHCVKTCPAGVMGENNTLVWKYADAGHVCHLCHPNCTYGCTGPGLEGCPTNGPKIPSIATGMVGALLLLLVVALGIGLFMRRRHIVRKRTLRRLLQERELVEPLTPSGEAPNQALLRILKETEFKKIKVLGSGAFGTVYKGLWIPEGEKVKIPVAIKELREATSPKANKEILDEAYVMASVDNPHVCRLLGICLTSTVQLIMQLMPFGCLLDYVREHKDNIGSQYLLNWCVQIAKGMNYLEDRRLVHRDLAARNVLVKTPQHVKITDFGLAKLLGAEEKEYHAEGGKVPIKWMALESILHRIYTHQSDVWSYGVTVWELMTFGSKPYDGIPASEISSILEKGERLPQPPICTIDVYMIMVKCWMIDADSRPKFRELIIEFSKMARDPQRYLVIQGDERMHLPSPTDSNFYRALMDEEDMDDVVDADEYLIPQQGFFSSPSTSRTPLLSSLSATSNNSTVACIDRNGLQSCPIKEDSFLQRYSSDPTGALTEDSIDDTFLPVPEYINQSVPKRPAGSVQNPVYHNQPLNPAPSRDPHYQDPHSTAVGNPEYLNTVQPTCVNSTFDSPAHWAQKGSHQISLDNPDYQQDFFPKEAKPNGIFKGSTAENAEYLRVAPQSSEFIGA

[4] = biological target: ABL1(Q252H)-nonphosphorylated (Homo sapiens, UniProt P00519, Q252H); experiment: biochemical; type: binding; conditions: read-out: Percent Control
KIT(A829P) = KIT(A829P) (Homo sapiens, UniProt P10721, A829P); experiment: biochemical; type: binding; conditions: compound concentration 100 nM; Entrez KIT; read-out: Percent Control
BTK2 = BTK2 (Homo sapiens, UniProt Q06187); experiment: scanMAX KINOMEscan (Eurofins); type: binding
BTK2, sequence (Q06187 whole entry): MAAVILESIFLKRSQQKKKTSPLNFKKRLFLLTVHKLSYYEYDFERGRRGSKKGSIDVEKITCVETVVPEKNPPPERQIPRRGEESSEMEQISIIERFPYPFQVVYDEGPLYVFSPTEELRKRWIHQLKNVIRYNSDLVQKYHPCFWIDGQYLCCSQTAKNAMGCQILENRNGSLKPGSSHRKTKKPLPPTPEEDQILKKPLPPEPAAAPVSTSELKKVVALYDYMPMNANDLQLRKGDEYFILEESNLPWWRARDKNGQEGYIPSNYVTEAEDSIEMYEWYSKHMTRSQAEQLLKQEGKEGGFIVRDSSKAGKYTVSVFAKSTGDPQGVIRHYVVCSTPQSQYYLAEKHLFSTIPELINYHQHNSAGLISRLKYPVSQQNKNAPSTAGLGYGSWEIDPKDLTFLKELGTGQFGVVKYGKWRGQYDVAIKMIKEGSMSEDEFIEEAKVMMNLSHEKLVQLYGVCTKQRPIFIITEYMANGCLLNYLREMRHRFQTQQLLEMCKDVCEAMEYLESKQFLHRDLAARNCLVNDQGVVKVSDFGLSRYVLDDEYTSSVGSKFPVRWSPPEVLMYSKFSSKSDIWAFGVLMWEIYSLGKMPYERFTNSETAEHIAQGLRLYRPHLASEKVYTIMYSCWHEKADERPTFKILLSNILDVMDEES

BRD4 = BRD4 (Homo sapiens, UniProt O60885); experiment: DSF selectivity screening; type: binding; conditions: 10 μM compound
JAK2 (V617F) = JAK2 (V617F) (Homo sapiens, UniProt O60674, V617F); experiment: cell-based; conditions: HEK-293T; 1 μM inhibitor, HEK293T cells
FGFR3(G697C) = FGFR3(G697C) (Homo sapiens, UniProt P22607, G697C); experiment: biochemical; type: binding; conditions: compound concentration 100 nM; Entrez FGFR3; read-out: Percent Control

## CN1C(=O)[C@@H](N2CCc3c(nn(Cc4ccccc4)c3C(N)=O)C2=O)COc2cc(Cl)ccc21 [Compound 10, (S)-2-benzyl-6-(8-chloro-5-methyl-4-oxo-2,3,4,5-tetrahydrobenzo[b][1,4]oxazepin-3-yl)-7-oxo-4,5,6,7-tetrahydro-2H-pyrazolo[3,4-c]pyridine-3-carboxamide]
FLT3(ITD,F691L)
  Percent Control: 100%
TOPKA
  ΔTm at 10 µM: -0.1 °C
MAP2K7
  ΔTm at 10 µM: 1.1 °C
RIOK1A
  ΔTm at 10 µM: 0.5 °C
DCAMKL1A
  ΔTm at 10 µM: 0 °C
STK17BA
  ΔTm at 10 µM: 0.1 °C
NEK1A
  ΔTm at 10 µM: 0.1 °C
PAK4A
  ΔTm at 10 µM: 0.1 °C
GSG2A
  ΔTm at 10 µM: 0.2 °C
CSNK2A1A
  ΔTm at 10 µM: -0.1 °C
FGFR1B
  ΔTm at 10 µM: -0.1 °C
KIT(D816H)
  remaining activity at 1 µM: 97%
[1]
  remaining activity at 1 µM: 100%
PIK3CA(M1043I)
  remaining activity at 1 µM: 87%
PIK3CA(Q546K)
  remaining activity at 1 µM: 97%
EGFR(G719C)
  remaining activity at 1 µM: 86%
[2]
  remaining activity at 0.1 µM: 100%
BRPF1B
  ΔTm at 10 µM: -0.1 °C
[3]
  remaining activity at 1 µM: 78%
LRRK2; LRRK2 (Entrez LRRK2), 100 nM, read-out: Percent Control
  remaining binding at 0.1 µM: 84%
LRRK2; LRRK2, 1 μM, read-out: POC (Top Hits @ 1 μM)
  remaining binding at 1 µM: 62%
LRRK2; LRRK2, 1000 nM, read-out: Percent Control
  remaining binding at 1 µM: 62%
KIT(V559D)
  remaining activity at 1 µM: 85%
KIT(D816V)
  remaining activity at 0.1 µM: 100%
EGFR(S752-I759del)
  remaining activity at 1 µM: 89%
PIK3CA(H1047L)
  remaining activity at 0.1 µM: 75%
EGFR(T790M)
  remaining activity at 0.1 µM: 100%
[4]
  remaining activity at 1 µM: 79%
KIT(A829P)
  remaining activity at 0.1 µM: 86%
BTK2; BTK2, 1 μM, read-out: POC (Top Hits @ 1 μM)
  remaining binding at 1 µM: 55%
BTK2; BTK (Entrez BTK), 100 nM, read-out: Percent Control
  remaining binding at 0.1 µM: 62%
BTK2; BTK, 1000 nM, read-out: Percent Control
  remaining binding at 1 µM: 55%
BRD4
  ΔTm at 10 µM: -1.4 °C
JAK2 (V617F)
  receptor occupancy at 1 µM: 2.27%
FGFR3(G697C)
  remaining activity at 0.1 µM: 92%
